Where only a bound is given, the exact number is not on record here.

One data set deals with anesthetized dogs. Briefly: Evaluation of cardiovascular dynamics and electrocardiogram in anesthetized dogs. As to conditions: single administration; for HR / LVdP/dt / PQ interval / QRS interval / QTc interval / mAP: percent change vs value prior to administration; for effects on the cardiovascular system: summary of Tables 4 to 8. In kind it is in vivo, dog. The text has this:
<Evaluation of Cardiovascular Dynamics and Electrocardiogram in Anesthetized Dogs> Method Anesthetized dogs were used for the experiment. After isolating the […], a microchip pressure transducer catheter was inserted therein, and the tip was situated near the aortic orifice and in the left ventricle, for measurement of the arterial pressure (AP) and left ventricular pressure (LVP). The LVP was differentiated using a differentiation unit, and the maximum value of the first derivative of the left ventricular pressure ([…] used as the index of the […] contractility. The heart rate (HR) was measured using an instantaneous heart rate counter, with the LVP waveforms as the trigger. A needle electrode was fixed to the right anterior limb and left and right posterior limbs, and a standard II-lead electrocardiogram was taken. The parameters were recorded on a recording sheet. The test substance was administered through the venous catheter inserted in the femoral vein. Administration of Test Substance and Recording Single Administration: The test substance was administered through the catheter for 1 minute. The electrocardiogram was recorded at 2 minutes after administration, and the change in the cardiovascular dynamic was recorded continuously for 10 minutes after the administration. After 10 minutes, the dose was increased and the recording was repeated. Continuous Intravenous Infusion: The test substance was administered through the catheter for a period of one minute, and then a sustained dose was administered by continuous intravenous infusion. The electrocardiogram was recorded at the 5 and 10 minute points, and the change in cardiovascular dynamic was recorded continuously for 10 minutes from the start of administration. After 10 minutes, the dose was increased and the recording was repeated. Analysis The HR, mean arterial pressure (mAP), LVdP/dtmax and electrocardiogram parameters (RR interval, PQ interval, QRS interval, QT interval) were read from the recording sheet. The QT interval was heart rate-corrected and represented as the QTc interval.

The test system of data set [1] is left saphenous nerve of rats (ectopic firing). Briefly: Inhibition of ectopic firing. In kind it is in vivo. As to conditions: Rattus norvegicus, iv; rats with cut left saphenous nerve, urethane anesthesia, compound via catheter in right cervical vein, number of firings in 10 seconds; read-out: Inhibition of ectopic firing (ID50). The gist of the method:
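Rat left saphenous nerve transected near the knee (~3 mm excised); recorded more than a week later under urethane (1 g/kg) anesthesia. Compound given via right cervical vein catheter. Ectopic firing recorded with platinum hook electrode, scored as number of firings in 10 seconds.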

For the next data set, the system named is sodium channels. In kind it is cell-based. As to conditions: read-out: IC50 (μM), sodium channel-inhibiting activity; rat fetal cultured hippocampal neurons, SBFI fluorescence in the presence of 4-aminopyridine, 5 minutes after addition, 1 μM tetrodotoxin = 100%.

Take `CN(C)CCC=C1c2ccccc2CCc2ccccc21` [Amitriptyline]: in the data set with anesthetized dogs (dose 0.3 mg/kg weight), the HR is reported as −2.9%, the LVdP/dt is reported as −5.9%, the PQ interval is given as −1.5% and the QRS interval is 0.4%. In the data set with anesthetized dogs (dose 0.3 mg/kg weight), the QTc interval turned out to be 1.9% and the mAP is on record as −0.9%. Besides, in the data set on anesthetized dogs (dose 1 mg/kg weight), the HR is on record as −4.0%, the LVdP/dt is given as −21.7%, the PQ interval turned out to be 8.7% and the QRS interval came to 15.4%. In the data set on anesthetized dogs (dose 1 mg/kg weight), the QTc interval is recorded as 13.1% and the mAP is on record as −25.4%. Further, the “effects on the cardiovascular system” value in the data set on anesthetized dogs is given as “exhibited effects on the cardiovascular system”.

In the case of `CCN(CC)CCCN(c1ccccc1)C1Cc2ccccc2C1` [Aprindine], in the data set with anesthetized dogs (dose 2 mg/kg weight), the HR is on record as −12.8%, the LVdP/dt is reported as −29%, the PQ interval is given as 14.2% and the QTc interval is 4.5%. For the same compound, in the data set with anesthetized dogs (dose 2 mg/kg weight), the mAP is reported as −34.7%. For the same compound, in the data set with anesthetized dogs (dose 4 mg/kg weight), the HR was −19.2%, the LVdP/dt is on record as −47.5% and the QTc interval is −0.4%. In the data set with anesthetized dogs, the PQ interval is given as 36.8%, the mAP is recorded as −47.7% and the “effects on the cardiovascular system” value was “exhibited effects on the cardiovascular system”.

In the case of `O=c1cncc(CCN2CCC(CCc3ccccc3F)CC2)[nH]1` [Example 243, 6-[2-[4-[2-(2-Fluorophenyl)ethyl]piperidino]ethyl]-1H-pyrazin-2-one], the ED50 in data set [1] is less than 0.5 mg/kg. In the data set on sodium channels, the IC50 was 5.7 µM.

Take `Cc1ccc(-c2ccccc2)n1CC1(O)CCN(Cc2ccc[nH]c2=O)CC1` [Example 251, 3-[4-Hydroxy-4-(2-methyl-5-phenylpyrrol-1-yl)methyl-piperidino]methyl-1H-pyridin-2-one]: the ED50 in data set [1] was 0.5 to 1 mg/kg. For the same compound, in the data set with sodium channels, the IC50 stood at 8.4 µM.

In the case of `O=c1[nH]cccc1CN1CCC(O)(COc2ccccc2F)CC1` [Example 253, 3-[4-Hydroxy-4-(2-fluorophenoxymethyl)piperidino]methyl-1H-pyridin-2-one], the ED50 in data set [1] was less than 0.5 mg/kg. The IC50 in the data set with sodium channels is 9.2 µM.

For `O=c1[nH]cc(Cl)cc1CN1CCC(O)(COc2ccccc2F)CC1` [Example 254, 5-Chloro-3-[4-hydroxy-4-(2-fluorophenoxymethyl)piperidino]methyl-1H-pyridin-2-one], the ED50 in data set [1] lay within 0.5 to 1 mg/kg. In addition, the IC50 in the data set on sodium channels is 8.9 µM.

Take `O=c1[nH]cccc1CN1CCC(CO)(CCc2ccccc2)CC1` [Example 256, 3-[4-Hydroxymethyl-4-(2-phenylethyl)piperidino]methyl-1H-pyridin-2-one]: the ED50 in data set [1] was in the range of 0.5 to 1 mg/kg. The IC50 in the data set on sodium channels turned out to be 5.8 µM.

As to `O=c1[nH]cccc1CN1CCC(O)(C#Cc2ccccc2F)CC1` [Example 258, 3-[4-Hydroxy-4-[(2-fluorophenyl)ethynyl]piperidino]methyl-1H-pyridin-2-one], in data set [1], the ED50 was less than 0.5 mg/kg. In the data set on sodium channels, the IC50 came out at 4.2 µM.

As to `CSc1ccccc1CC(=O)C1CCN(Cc2ncc[nH]c2=O)CC1` [Example 343, 3-[4-[2-[2-(Methylthio)phenyl]acetyl]piperidino]methyl-1H-pyrazin-2-one], the ED50 in data set [1] was less than 0.5 mg/kg. Moreover, the IC50 in the data set with sodium channels came out at 3.5 µM.

Turning to `O=C(Cc1ccccc1C(F)(F)F)C1CCN(Cc2ncc[nH]c2=O)CC1` [Example 344, 3-[4-[2-[2-(Trifluoromethyl)phenyl]acetyl]piperidino]methyl-1H-pyrazin-2-one], in data set [1], the ED50 was less than 0.5 mg/kg. Moreover, the 50% inhibitory concentration (IC50) in the data set with sodium channels is 4.4 µM.

On to `CCOc1ccccc1CC(=O)C1CCN(Cc2ncc[nH]c2=O)CC1` [Example 347, 3-[4-[2-(2-Ethoxyphenyl)acetyl]piperidino]methyl-1H-pyrazin-2-one], for which the ED50 in data set [1] is less than 0.5 mg/kg. The IC50 in the data set with sodium channels came out at 3 µM.

For the compound `CC(c1ncc[nH]c1=O)N1CCC(C(=O)Cc2ccccc2F)CC1` (stereo not drawn) [Example 350, 3-[1-[4-[2-(2-Fluorophenyl)acetyl]piperidino]ethyl]-1H-pyrazin-2-one], in data set [1], the ED50 is less than 0.5 mg/kg. The IC50 in the data set with sodium channels was 6 µM.

`CC1(C(=O)Cc2ccccc2F)CCN(Cc2ncc[nH]c2=O)CC1` [Example 365, 3-[4-[2-(2-Fluorophenyl)acetyl]-4-methylpiperidino]methyl-1H-pyrazin-2-one]: the ED50 in data set [1] was less than 0.5 mg/kg. The IC50 in the data set with sodium channels turned out to be 3.4 µM.

Regarding `CC1(C(=O)Cc2ccccc2C(F)(F)F)CCN(Cc2ncc[nH]c2=O)CC1` [Example 373, 3-[4-Methyl-4-[2-[2-(trifluoromethyl)phenyl]acetyl]piperidino]methyl-1H-pyrazin-2-one], the ED50 in data set [1] was less than 0.5 mg/kg. Further, in the data set with sodium channels, the IC50 was 1.6 µM.

Take `O=C(Cc1c(F)cccc1C(F)(F)F)C1CCN(Cc2ncc[nH]c2=O)CC1` [Example 376, 3-[4-[2-[2-Fluoro-6-(trifluoromethyl)phenyl]acetyl]piperidino]methyl-1H-pyrazin-2-one]: the ED50 in data set [1] was less than 0.5 mg/kg. Besides, the IC50 in the data set with sodium channels was determined as 1.1 µM.

With `CC(c1ncc[nH]c1=O)N1CCC(C(=O)Cc2ccccc2C(F)(F)F)CC1.O=C(O)C(=O)O` (stereo not drawn) [Example 394, 3-[1-[4-[2-[2-(Trifluoromethyl)phenyl]acetyl]piperidino]ethyl]-1H-pyrazin-2-one oxalate], the ED50 in data set [1] was less than 0.5 mg/kg. In the data set with sodium channels, the IC50 turned out to be 2.8 µM.

Consider `O=C(NCC1CCCCN1)c1cc(OCC(F)(F)F)ccc1OCC(F)(F)F` (stereo not drawn) [Flecainide], for which, in the data set on anesthetized dogs (dose 1 mg/kg weight), the HR was −8.6%, the LVdP/dt was −18.2%, the PQ interval was 8.8% and the QRS interval is given as 6.4%. Also, in the data set with anesthetized dogs (dose 1 mg/kg weight), the QTc interval is recorded as 2.3% and the mAP is listed as −14.2%. Also, in the data set with anesthetized dogs (dose 3 mg/kg weight), the HR is given as −24.8%, the LVdP/dt is −56.9%, the PQ interval was 36.1% and the QRS interval worked out at 37.1%. In the data set with anesthetized dogs (dose 3 mg/kg weight), the QTc interval amounted to 9.3% and the mAP is listed as −42.9%. Moreover, the “effects on the cardiovascular system” value with anesthetized dogs is given as “exhibited effects on the cardiovascular system”.

For `Cc1cccc(C)c1OCC(C)N` (stereo not drawn) [Mexiletine], in the data set on anesthetized dogs (dose 2.2 mg/kg weight), the HR is −2.8%, the LVdP/dt is −20.8%, the PQ interval came out at 0.7% and the QRS interval came to 1.8%. In the data set with anesthetized dogs (dose 2.2 mg/kg weight), the QTc interval was −3.0% and the mAP is listed as −6.2%. In the data set on anesthetized dogs (dose 6.6 mg/kg weight), the HR was −10.6%, the LVdP/dt is −47.8%, the PQ interval worked out at 3.4% and the QRS interval was 6.3%. In addition, in the data set with anesthetized dogs (dose 6.6 mg/kg weight), the QTc interval was −4.6% and the mAP is −44.2%. In addition, the “effects on the cardiovascular system” value with anesthetized dogs was “exhibited effects on the cardiovascular system”. The ED50 in data set [1] lay in the range of 1 to 3 mg/kg.

For `Cc1cccc(C)c1NC(=O)CC12CCCN1CCC2` [Pilsicainide], in the data set on anesthetized dogs (dose 1 mg/kg weight), the HR is on record as −1.0%, the LVdP/dt is on record as −20.6%, the PQ interval was found to be 17.4% and the QTc interval is reported as 4.6%. Further, the mAP with anesthetized dogs (dose 1 mg/kg weight) is −3.2%. Besides, in the data set on anesthetized dogs (dose 3 mg/kg weight), the HR is recorded as −5.0%, the LVdP/dt was −31.7%, the PQ interval stood at 55.1% and the QTc interval is 5.3%. Besides, the mAP in the data set with anesthetized dogs (dose 3 mg/kg weight) was −8.2%. Moreover, in the data set on anesthetized dogs, the “effects on the cardiovascular system” value is “exhibited effects on the cardiovascular system”.
